Experiments:
[1] = MetS induced by high-fat diet (HFD) in mice; assay type: in vivo; conditions: C57Bl/j male mice on HFD, benserazide 50 mg/day p.o., 12 weeks
Method: In other experiments, we conducted a pre-clinical trial of benserazide on the development of MetS induced by high-fat diet (HFD). HFD was fed to C57Bl/j male mice (6 weeks of age). Benserazide, 50 mg/day, p.o., was administered for 12 weeks (five days/week). Differences (p<0.05) were considered as statistically significant (Mann-Whitney two-tailed test).

[2] = GTT at day 71; C57BL female mice, N = 10
Method: (§1) C57BL female mice (n=10 mice in each group) were treated with olanzapine (4 mg/kg, po) (control) or with a combination of olanzapine (4 mg/kg, po) and benserazide (100 mg/day, po), 5 days per week for 10 weeks.
(§2) Body weight was checked two times per week. Glucose tolerance, a marker of IR, was determined by a glucose tolerance test (GTT) at the end of the study (day 71). In addition, blood samples were analyzed for cholesterol (total) and triglycerides.

[3] = C57BL female mice, N = 10; end of 10-week treatment
Method: as §1, §2

Compound	Elevation of blood cholesterol induced by HFD, change ([1]; five days/week)	Elevation of triglycerides induced by HFD, change ([1]; five days/week)	Excessive weight gain induced by HFD, change ([1]; five days/week)	Glucose tolerance impairment induced by HFD ([1]; result in words)	Effect on weight gain induced by olanzapine (benserazide 100 mg/day po with olanzapine 4 mg/kg po, 10 weeks, result in words)	Glucose levels 90 minutes after ingestion of sugar [2]	Glucose levels baseline (before ingestion of sugar) [2]	Body weight, Day 1 (C57BL female mice, n = 10, olanzapine 4 mg/kg po with or without benserazide 100 mg/day po, 5 days per week for 10 weeks, Day 1)	Body weight, Day 71 (C57BL female mice, n = 10, olanzapine 4 mg/kg po with or without benserazide 100 mg/day po, 5 days per week for 10 weeks, Day 71)	Cholesterol (total, blood) [3]	Triglycerides (blood) [3]
NC(CO)C(=O)NNCc1ccc(O)c(O)c1O (centres unmarked) [Benserazide, seryl-(2,3,4-trihydroxybenzyl)-hydrazide]	−17%	−25%	−40%	attenuated	attenuated weight gain	–	–	–	–	–	–
Cc1cc2c(s1)Nc1ccccc1N=C2N1CCN(C)CC1 [Olanzapine]	–	–	–	–	–	520.55 ± 15.63	183.25 ± 10.49	17.4 ± 0.13	34.0 ± 0.09	172.33 ± 4.536	151.00 ± 5.37
